In patent publication US7897592B2, “HIV integrase inhibitors” (priority 2005, dated 2011):

Target: T1, HIV-integrase (recombinant integrase) (Human immunodeficiency virus type 1 group M subtype B, UniProt P12497)
T1 construct: Recombinant integrase (0.26 ng) was incubated with the beads
Assay: HIV-Integrase Inhibition Activity (SPA bead strand-transfer assay)
Format: biochemical
Settings: biotin labeled substrate DNA on SPA beads, P33 labeled target DNA, read-out: Activity (IC50 against HIV-integrase)
Procedure: HIV-Integrase Inhibition Activity. To evaluate in-vitro activity against HIV-integrase, 5 pmole of biotin labeled substrate DNA was bound to 100 μg of Streptavidin coated PVT SPA beads (Amersham Pharmacia Biotech). Recombinant integrase (0.26 ng) was incubated with the beads for 90 min at 37° C. Unbound enzyme was removed by washing the complex followed by addition of inhibitors and 0.1 fmol of P33 labeled target DNA. The reaction was stopped by adding EDTA to a final concentration of 10 mM. Samples were counted in TopCountNXT (Packard) and the CPM was used as a measure of integration. The reaction condition was as described in A. Engelman and R. Craigie, J. Virol. 69, 5908-5911 (1995). The sequences of substrate and target DNA were described in Nucleic Acid Research 22, 1121-1122 (1994). Activity equal to A refers to a compound having IC50=0.002 to 0.10 μM while B and C denote compounds having IC50=0.1 to 1.0 μM and IC50≧1.0 μM respectively.

| SMILES | IC50 |
| --- | --- |
| Cc1cc(CNC(=O)c2nc3n(c(=O)c2O)CCCS(=O)(=O)C32CCOCC2)ccc1F [Example 27, Spiro[4H-pyran-4,10′(4′H)-[6H]pyrimido[2,1-c][1,4]thiazepine]-2′-carboxamide, N-[(4-fluoro-3-methylphenyl)methyl]-2,3,5,6,7′,8′-hexahydro-3′-hydroxy-4′-oxo-, 9′,9′-dioxide] | 2 to 100 nM |
| O=C(NCc1ccc(F)cc1-n1cncn1)c1nc2n(c(=O)c1O)CCCS(=O)(=O)C21CCOCC1 [Example 28, Spiro[4H-pyran-4,10′(4′H)-[6H]pyrimido[2,1-c][1,4]thiazepine]-2′-carboxamide, N-[[4-fluoro-2-(1H-1,2,4-triazol-1-yl)phenyl]methyl]-2,3,5,6,7′,8′-hexahydro-3′-hydroxy-4′-oxo-, 9′,9′-dioxide] | 2 to 100 nM |
| Cc1ncnn1-c1cc(F)ccc1CNC(=O)c1nc2n(c(=O)c1O)CCCS(=O)(=O)C21CCOCC1 [Example 29, Spiro[4H-pyran-4,10′(4′H)-[6H]pyrimido[2,1-c][1,4]thiazepine]-2′-carboxamide, N-[[4-fluoro-2-(5-methyl-1H-1,2,4-triazol-1-yl)phenyl]methyl]-2,3,5,6,7′,8′-hexahydro-3′-hydroxy-4′-oxo-, 9′,9′-dioxide] | 2 to 100 nM |
